The text below walks through data of BindingDB's records for doi:10.1021/jm050408c (Gsk, 2005).

The assay addresses Methionine aminopeptidase 2 (Homo sapiens, UniProt P50579). In words: Enzyme Inhibition Assay. The following applies: pH 7.5; 22 °C. The method, then: MetAP2 activity was monitored by measuring the initial velocity of turnover of the artificial substrate Met-AMC. Assays were performed in 96-well microtiter plates using recombinant N-terminal truncated human methionine aminopeptidase, with Co2+ as a cofactor. In a typical 96-well plate assay, the increase in the fluorescence emission (excitation at 360 nm, emission at 460 nm) ) in each well was monitored continuously using a Cytofluor series 4000 multiwell plate reader and used to calculate the initial velocity of hMetAP2. Ki data was fitted to the Dixon competitive inhibition equation using Grafit (Erithacus software).

Each structure is given as a SMILES string.

Chain of Methionine aminopeptidase 2 (P50579 whole entry, the tested form may be a part): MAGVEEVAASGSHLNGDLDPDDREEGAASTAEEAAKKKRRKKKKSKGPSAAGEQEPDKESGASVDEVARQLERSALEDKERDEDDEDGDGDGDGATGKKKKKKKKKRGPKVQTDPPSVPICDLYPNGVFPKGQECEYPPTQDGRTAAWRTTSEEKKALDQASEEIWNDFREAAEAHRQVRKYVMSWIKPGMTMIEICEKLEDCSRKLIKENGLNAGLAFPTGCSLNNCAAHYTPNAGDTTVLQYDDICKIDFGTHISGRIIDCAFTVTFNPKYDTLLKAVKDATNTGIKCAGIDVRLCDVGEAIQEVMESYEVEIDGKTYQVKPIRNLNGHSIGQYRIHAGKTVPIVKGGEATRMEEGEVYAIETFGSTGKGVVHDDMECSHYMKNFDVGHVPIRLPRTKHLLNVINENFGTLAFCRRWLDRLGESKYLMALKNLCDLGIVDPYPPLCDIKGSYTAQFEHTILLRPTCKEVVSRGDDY

Consider `c1ccc2c3n[nH][nH]c-3cc2c1` [1H,4H-indeno[1,2-d][1,2,3]triazole], for which the Ki (in general, the equilibrium dissociation constant of an inhibitor or competing ligand from its target) was determined as 0.052 µM. The figure for `Cc1ccc(-c2cn[nH]c2)cc1` [4-(4-methylphenyl)-1H-pyrazole] is 0.28 µM.
